Where a SMILES comes first, the peptide text is derived from it.
Legend:
[1] = biological target: T1, Dickkopf-related protein 1 (Homo sapiens, UniProt O94907); assay: Inhibition of biotin-labeled human recombinant DKK1 assessed as reduction in DKK1 interaction with LRP-6/Fc incubated overnight by chemiluminescence based Alpha-screen assay
T1 sequence (O94907 whole entry): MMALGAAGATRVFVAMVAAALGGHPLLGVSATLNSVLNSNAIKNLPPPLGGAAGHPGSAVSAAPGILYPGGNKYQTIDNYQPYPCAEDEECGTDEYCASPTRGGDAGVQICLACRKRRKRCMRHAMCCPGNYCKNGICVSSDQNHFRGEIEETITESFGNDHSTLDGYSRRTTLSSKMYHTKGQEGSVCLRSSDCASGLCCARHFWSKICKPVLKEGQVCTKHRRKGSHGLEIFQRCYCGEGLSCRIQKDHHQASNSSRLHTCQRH

[2] = biological target: T2, Dickkopf WNT-signaling pathway inhibitor 1 (Rattus norvegicus, UniProt A6I0Z0); assay: Inhibition of biotin-labeled rat recombinant DKK1 assessed as reduction in DKK1 interaction with LRP-6/Fc incubated overnight by chemiluminescence based Alpha-screen assay
T2 sequence (A6I0Z0 whole entry): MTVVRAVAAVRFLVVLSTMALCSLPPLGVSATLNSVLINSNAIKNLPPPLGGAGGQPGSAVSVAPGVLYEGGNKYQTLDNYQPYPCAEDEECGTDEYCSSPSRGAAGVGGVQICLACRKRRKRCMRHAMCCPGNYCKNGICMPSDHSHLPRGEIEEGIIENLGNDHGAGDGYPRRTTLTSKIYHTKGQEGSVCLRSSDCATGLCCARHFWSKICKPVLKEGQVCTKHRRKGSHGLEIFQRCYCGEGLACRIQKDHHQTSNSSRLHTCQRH

Row | IC50 [1] [nM] | IC50 [2] [nM] | SMILES
1 | 40 to 80 | 40 to 80 | CSCC[C@H](NC(=O)[C@@H]1CCCN1C(=O)[C@H](Cc1ccc(O)cc1)NC(=O)[C@H](CS)NC(=O)[C@H](Cc1cnc[nH]1)NC(=O)[C@H](CC(N)=O)NC(=O)[C@H](CC(N)=O)NC(=O)[C@H](CC(N)=O)NC(=O)[C@H](CCCNC(=N)N)NC(=O)[C@H](CS)NC(=O)[C@H](CCC(N)=O)NC(=O)[C@H](Cc1ccccc1)NC(=O)[C@H](Cc1ccc(O)cc1)NC(=O)[C@H](CO)NC(=O)[C@H](C)NC(=O)[C@@H]1CCCN1C(=O)[C@@H](N)CS)C(=O)N[C@@H](CCC(=O)O)C(=O)N[C@@H](Cc1c[nH]c2ccccc12)C(=O)N[C@@H](CCCNC(=N)N)C(=O)N[C@@H](CS)C(=O)N[C@@H](CC(=O)O)C(=O)NCC(=O)N[C@@H](Cc1ccccc1)C(=O)N[C@@H](CCC(N)=O)C(=O)N[C@@H](CC(=O)O)C(=O)N[C@@H](CS)C(=O)N[C@@H](CCC(=O)O)C(=O)N[C@@H](CC(=O)O)C(=O)NCC(=O)N[C@@H](CO)C(=O)N[C@@H](CC(=O)O)C(=O)N[C@@H](CCC(=O)O)C(=O)N[C@@H](CCCCN)C(=O)NCC(=O)N[C@@H](CS)C(=O)N1CCC[C@H]1C(=O)N[C@@H](Cc1ccc(O)cc1)C(=O)N[C@@H](CCCNC(=N)N)C(=O)N[C@H](C(=O)O)[C@@H](C)O (H-CPASYFQCRNNNHCYPMEWRCDGFQDCEDGSDEKGCPYRT-OH)
2 | ≤ 1 | ≤ 1 | CSCC[C@H](NC(=O)[C@@H]1CCCN1C(=O)[C@H](Cc1ccc(O)cc1)NC(=O)[C@H](CS)NC(=O)[C@H](Cc1cnc[nH]1)NC(=O)[C@H](CC(N)=O)NC(=O)[C@H](Cc1ccc(O)cc1)NC(=O)[C@H](CC(N)=O)NC(=O)[C@H](CCCNC(=N)N)NC(=O)[C@H](CS)NC(=O)[C@H](CCC(N)=O)NC(=O)[C@H](Cc1ccccc1)NC(=O)[C@H](Cc1ccc(O)cc1)NC(=O)[C@H](CO)NC(=O)[C@H](C)NC(=O)[C@@H]1CCCN1C(=O)[C@@H](N)CS)C(=O)N[C@@H](CCC(=O)O)C(=O)N[C@@H](Cc1c[nH]c2ccccc12)C(=O)N[C@@H](CCCNC(=N)N)C(=O)N[C@@H](CS)C(=O)N[C@@H](CC(=O)O)C(=O)NCC(=O)N[C@@H](Cc1ccccc1)C(=O)N[C@@H](CCC(=O)O)C(=O)N[C@@H](CC(=O)O)C(=O)N[C@@H](CS)C(=O)N[C@@H](CC(C)C)C(=O)N[C@@H](CC(=O)O)C(=O)NCC(=O)N[C@@H](CO)C(=O)N[C@@H](CC(=O)O)C(=O)N[C@@H](CCC(=O)O)C(=O)N[C@H](C(=O)N[C@@H](CC(=O)O)C(=O)N[C@@H](CS)C(=O)N1CCC[C@H]1C(=O)N[C@@H](Cc1ccc(O)cc1)C(=O)N[C@@H](CCCNC(=N)N)C(=O)N[C@H](C(=O)O)[C@@H](C)O)[C@@H](C)O (H-CPASYFQCRNYNHCYPMEWRCDGFEDCLDGSDETDCPYRT-OH)
3 | ≤ 1 | ≤ 1 | CSCC[C@H](NC(=O)[C@@H]1CCCN1C(=O)[C@H](Cc1ccc(O)cc1)NC(=O)[C@H](CS)NC(=O)[C@H](Cc1cnc[nH]1)NC(=O)[C@H](CC(N)=O)NC(=O)[C@H](CCCNC(=N)N)NC(=O)[C@H](CC(N)=O)NC(=O)[C@H](CCCNC(=N)N)NC(=O)[C@H](CS)NC(=O)[C@H](CCCNC(=N)N)NC(=O)[C@H](Cc1ccccc1)NC(=O)[C@H](Cc1ccc(O)cc1)NC(=O)[C@H](CO)NC(=O)[C@H](C)NC(=O)[C@@H]1CCCN1C(=O)[C@@H](N)CS)C(=O)N[C@@H](CCC(=O)O)C(=O)N[C@@H](Cc1c[nH]c2ccccc12)C(=O)N[C@@H](CCCNC(=N)N)C(=O)N[C@@H](CS)C(=O)N[C@@H](CC(=O)O)C(=O)NCC(=O)N[C@@H](Cc1ccccc1)C(=O)N1CCC[C@H]1C(=O)N[C@@H](CC(=O)O)C(=O)N[C@@H](CS)C(=O)N[C@@H](CCC(=O)O)C(=O)N[C@@H](CC(=O)O)C(=O)N[C@@H](C)C(=O)N[C@@H](CO)C(=O)N[C@@H](CC(=O)O)C(=O)N[C@@H](CCC(=O)O)C(=O)N[C@@H](CCCCN)C(=O)NCC(=O)N[C@@H](CS)C(=O)N1CCC[C@H]1C(=O)N[C@@H](Cc1ccc(O)cc1)C(=O)N[C@@H](CCCNC(=N)N)C(=O)N[C@H](C(=O)O)[C@@H](C)O (H-CPASYFRCRNRNHCYPMEWRCDGFPDCEDASDEKGCPYRT-OH)
4 | ≤ 1 | ≤ 1 | CC[C@H](C)[C@H](NC(=O)[C@H](CC(C)C)NC(=O)[C@@H]1CCCN1C(=O)[C@H](Cc1ccccc1)NC(=O)[C@H](CS)NC(=O)[C@H](CCSC)NC(=O)[C@H](CCCCN)NC(=O)[C@H](CC(=O)O)NC(=O)[C@@H]1CCCN1C(=O)[C@H](CS)NC(=O)[C@H](CCSC)NC(=O)[C@H](Cc1ccccc1)NC(=O)[C@H](CCC(=O)O)NC(=O)[C@H](CC(N)=O)NC(=O)[C@H](CC(C)C)NC(=O)[C@@H]1CCCN1C(=O)[C@@H](N)CS)C(=O)N[C@@H](Cc1ccccc1)C(=O)N[C@@H](CC(C)C)C(=O)N[C@@H](CS)C(=O)N[C@@H](CC(=O)O)C(=O)NCC(=O)N[C@@H](CCC(=O)O)C(=O)N[C@@H](CC(N)=O)C(=O)N[C@@H](CC(=O)O)C(=O)N[C@@H](CS)C(=O)N[C@@H](Cc1cnc[nH]1)C(=O)N[C@@H](CC(=O)O)C(=O)NCC(=O)N[C@@H](CO)C(=O)N[C@@H](CC(=O)O)C(=O)N[C@@H](CCC(=O)O)C(=O)N[C@@H](C)C(=O)N[C@@H](Cc1ccc(O)cc1)C(=O)N[C@@H](CS)C(=O)N1CCC[C@H]1C(=O)N[C@@H](CO)C(=O)N[C@@H](CCCNC(=N)N)C(=O)N[C@H](C(=O)O)[C@@H](C)O (H-CPLNEFMCPDKMCFPLIFLCDGENDCHDGSDEAYCPSRT-OH)

Second part, the compound before the results:

Row | SMILES | IC50 [1] [nM] | IC50 [2] [nM]
5 | CSCC[C@H](NC(=O)[C@@H]1CCCN1C(=O)[C@H](Cc1ccc(O)cc1)NC(=O)[C@H](CS)NC(=O)[C@H](CO)NC(=O)[C@H](CC(N)=O)NC(=O)[C@H](CC(N)=O)NC(=O)[C@H](CC(N)=O)NC(=O)[C@H](CCCNC(=N)N)NC(=O)[C@H](CS)NC(=O)[C@H](CCC(N)=O)NC(=O)[C@H](Cc1ccccc1)NC(=O)[C@H](Cc1ccc(O)cc1)NC(=O)[C@H](CO)NC(=O)[C@H](C)NC(=O)[C@@H]1CCCN1C(=O)[C@@H](N)CS)C(=O)N[C@@H](CCC(=O)O)C(=O)N[C@@H](Cc1c[nH]c2ccccc12)C(=O)N[C@@H](CCCNC(=N)N)C(=O)N[C@@H](CS)C(=O)N[C@@H](CC(=O)O)C(=O)NCC(=O)N[C@@H](Cc1ccccc1)C(=O)N[C@@H](CCC(=O)O)C(=O)N[C@@H](CC(=O)O)C(=O)N[C@@H](CS)C(=O)N[C@@H](CCC(=O)O)C(=O)N[C@@H](CC(=O)O)C(=O)NCC(=O)N[C@@H](CO)C(=O)N[C@@H](CC(=O)O)C(=O)N[C@@H](CCC(=O)O)C(=O)N[C@@H](CCCNC(=N)N)C(=O)NCC(=O)N[C@@H](CS)C(=O)N1CCC[C@H]1C(=O)N[C@@H](Cc1ccc(O)cc1)C(=O)N[C@@H](CCCNC(=N)N)C(=O)N[C@H](C(=O)O)[C@@H](C)O (H-CPASYFQCRNNNSCYPMEWRCDGFEDCEDGSDERGCPYRT-OH) | ≤ 1 | ≤ 1
6 | CSCC[C@H](NC(=O)[C@@H]1CCCN1C(=O)[C@H](Cc1ccc(O)cc1)NC(=O)[C@H](CS)NC(=O)[C@H](Cc1cnc[nH]1)NC(=O)[C@H](CCCCN)NC(=O)[C@H](Cc1ccccc1)NC(=O)[C@H](CC(N)=O)NC(=O)[C@H](Cc1c[nH]c2ccccc12)NC(=O)[C@H](CS)NC(=O)[C@H](CCC(N)=O)NC(=O)[C@H](Cc1ccccc1)NC(=O)[C@H](Cc1ccc(O)cc1)NC(=O)[C@H](CO)NC(=O)[C@H](C)NC(=O)[C@@H]1CCCN1C(=O)[C@@H](N)CS)C(=O)N[C@@H](CCC(=O)O)C(=O)N[C@@H](Cc1c[nH]c2ccccc12)C(=O)N[C@@H](CCCNC(=N)N)C(=O)N[C@@H](CS)C(=O)N[C@@H](CC(=O)O)C(=O)NCC(=O)N[C@@H](Cc1ccccc1)C(=O)N[C@@H](CC(N)=O)C(=O)N[C@@H](CC(=O)O)C(=O)N[C@@H](CS)C(=O)N[C@H](C(=O)N[C@@H](CC(=O)O)C(=O)NCC(=O)N[C@@H](CO)C(=O)N[C@@H](CC(=O)O)C(=O)N[C@@H](CCC(=O)O)C(=O)N[C@@H](CCCCN)C(=O)NCC(=O)N[C@@H](CS)C(=O)N1CCC[C@H]1C(=O)N[C@@H](Cc1ccc(O)cc1)C(=O)N[C@@H](CCCNC(=N)N)C(=O)N[C@H](C(=O)O)[C@@H](C)O)C(C)C (H-CPASYFQCWNFKHCYPMEWRCDGFNDCVDGSDEKGCPYRT-OH) | ≤ 1 | ≤ 1
7 | CSCC[C@H](NC(=O)[C@@H]1CCCN1C(=O)[C@H](Cc1ccc(O)cc1)NC(=O)[C@H](CS)NC(=O)[C@H](Cc1cnc[nH]1)NC(=O)[C@H](CC(N)=O)NC(=O)[C@H](Cc1cnc[nH]1)NC(=O)[C@H](CC(N)=O)NC(=O)[C@H](CCCNC(=N)N)NC(=O)[C@H](CS)NC(=O)[C@H](CCCNC(=N)N)NC(=O)[C@H](Cc1ccccc1)NC(=O)[C@H](Cc1ccc(O)cc1)NC(=O)[C@H](CO)NC(=O)[C@H](C)NC(=O)[C@@H]1CCCN1C(=O)[C@@H](N)CS)C(=O)N[C@@H](CCC(=O)O)C(=O)N[C@@H](Cc1c[nH]c2ccccc12)C(=O)N[C@@H](CCCNC(=N)N)C(=O)N[C@@H](CS)C(=O)N[C@@H](CC(=O)O)C(=O)NCC(=O)N[C@@H](Cc1ccccc1)C(=O)N[C@@H](CC(=O)O)C(=O)N[C@@H](CC(=O)O)C(=O)N[C@@H](CS)C(=O)N[C@@H](CCC(=O)O)C(=O)N[C@@H](CC(=O)O)C(=O)NCC(=O)N[C@@H](CO)C(=O)N[C@@H](CC(=O)O)C(=O)N[C@@H](CCC(=O)O)C(=O)N[C@@H](CCC(N)=O)C(=O)NCC(=O)N[C@@H](CS)C(=O)N1CCC[C@H]1C(=O)N[C@@H](Cc1ccc(O)cc1)C(=O)N[C@@H](CCCNC(=N)N)C(=O)N[C@H](C(=O)O)[C@@H](C)O (H-CPASYFRCRNHNHCYPMEWRCDGFDDCEDGSDEQGCPYRT-OH) | ≤ 1 | ≤ 1

Source: ChEMBL document CHEMBL4417633, “Inhibitory polypeptides specific to WNT inhibitors” (2017)
